In brackets after ≈: the same amount, converted by molar mass.
Key:
[1] = tested on: A. baumannii strain 5075 (AB5075); test: Broth microdilution MIC determination of compound alone; type: cell-based; conditions: Acinetobacter baumannii
Summary of the method: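 MIC by twofold serial dilution in cation-adjusted Mueller-Hinton broth, inoculum 5×10^5 CFU/mL from 6 h day cultures, top concentration 200 μM (64 μg/mL). Incubated stationary at 37° C. for 16 hours; MIC taken as lowest concentration with no visible growth.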

[2] = tested on: A. baumannii mutant AB1310; test: MIC against Tn-seq transposon mutant AB1310; type: cell-based; conditions: Acinetobacter baumannii
Method: (§1) During individual MIC screening, two mutants, AB522 and AB1310, were identified due to their increased sensitivity to the three macrolide antibiotics and vancomycin when compared to AB 5075 (Table 17).
(§2) Day Cultures (6 h) were subcultured to 5×10^5 CFU/mL in cation adjusted Mueller-Hinton broth (CAMHB). Aliquots (1 mL) were placed in culture tubes, and compound was added from 100 mM stock solutions, such that the compound concentration equaled the highest concentration tested (200 μM or 64 μg/mL). Samples were then aliquoted (200 μL) into the first row of wells of a 96-well plate, with all remaining wells being filled with 100 μL of initial bacterial subculture. The wells in row one were mixed five times before 100 μL was transferred to the following row (row two). Row two was then mixed five times, and 100 μL was transferred to row three. This processed was repeated until the final row had been mixed. This process provided a serial dilution of the compound. Plates were covered with Glad Press n'Seal and were incubated under stationary conditions at 37° C. for 16 hours. MIC values were recorded as the lowest concentration at which no bacterial growth was observed.

[3] = tested on: A. baumannii mutant AB522; test: MIC against Tn-seq transposon mutant AB522; type: cell-based; conditions: Acinetobacter baumannii
Method: as §1, §2

[4] = tested on: A. baumannii mutant AB1310; test: Dose dependent resistance suppression (antibiotic MIC with compound) in AB1310; type: cell-based, Acinetobacter baumannii
Method: There was no notable reduction in antibiotic MIC observed with either compound and both strains 522 and 1310. […] Even at the highest concentration, no potentiation was observed.
Day Cultures (6 h) were subcultured to 5×10^5 CFU/mL in cation adjusted Mueller-Hinton broth (CAMHB). […] One milliliter of the resulting solution was aliquoted into a separate culture tube and was dosed with antibiotic so that the resulting concentration was the highest desirable concentration to be tested. Bacteria treated with antibiotic alone were used as a control. Row one of a 96-well plate was filled with 200 μL of the antibiotic/compound solution, and the remaining rows were filled with 100 μL of the remaining 4 mL bacterial subculture. The wells in row one were mixed five times before 100 μL was transferred to the following row (row two). Row two was then mixed five times, and 100 μL was transferred to row three. This process was repeated until the second to last row had been reached. The last row is left unexposed to antibiotic in order to serve as a negative control. The antibiotic only treated bacteria was plated by aliquoting 200 μL of the treated bacteria into row one and filling the remaining rows with untreated bacteria from the original bacteria subculture. The rows were mixed in the same way as described above. Plates were covered with Glad Press n'Seal and were incubated under stationary conditions at 37° C. for 16 hours. MIC values were recorded as the lowest concentration at which no bacterial growth was observed. Fold reductions were determined by comparison of the compound treated wells with the antibiotic only treated control wells.

[5] = tested on: A. baumannii strain 5075 (AB5075); test: Macrolide sensitization / antibiotic resensitization: antibiotic MIC in presence of compound (broth microdilution); type: cell-based, Acinetobacter baumannii
Summary of the method: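 A. baumannii AB5075 at 5×10^5 CFU/mL in CAMHB held a fixed compound level while antibiotic was serially diluted. After 16-18 h static at 37° C, MIC was the lowest antibiotic concentration without visible growth. Fold-reduction is relative to antibiotic alone, from duplicates repeated at least twice.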

[6] = compound at 30 μM vs antibiotic alone, AB5075
[7] = in presence of compound (concentration not given in Table 7), AB5075
[8] = in presence of compound (concentration not given in Table 12), AB5075
[9] = in presence of compound at 4 μM, AB5075
[10] = in presence of compound at 5 μM, AB5075
[11] = in presence of compound at 10 μM, AB5075
[12] = in presence of compound at 15 μM, AB5075
[13] = in presence of compound at 20 μM, AB5075
[14] = in presence of compound at 30 μM, AB5075

Nc1nc(-c2ccc(NC(=O)c3cc(Cl)cc(Cl)c3)cc2)c[nH]1 [Compound 1]
MIC [1]: 100 µM (≈ 34.7 µg/mL)
MIC [2]: 12.5 µM (≈ 4.34 µg/mL)
MIC [3]: 12.5 µM (≈ 4.34 µg/mL)
Azithromycin MIC ([4]; compound Conc. Tested 2 (μM)): 4 µg/mL
Clarithromycin MIC ([4]; compound Conc. Tested 2 (μM)): 1 µg/mL
Erythromycin MIC ([4]; compound Conc. Tested 2 (μM)): 4 µg/mL
Vancomycin MIC ([4]; compound Conc. Tested 2 (μM)): 64 µg/mL
Azithromycin MIC ([4]; compound Conc. Tested 3 (μM)): 4 µg/mL
Clarithromycin MIC ([4]; compound Conc. Tested 3 (μM)): 1 µg/mL
Erythromycin MIC ([4]; compound Conc. Tested 3 (μM)): 2 µg/mL
Vancomycin MIC ([4]; compound Conc. Tested 3 (μM)): 64 µg/mL
Azithromycin MIC ([4]; compound Conc. Tested 4 (μM)): 4 µg/mL
Clarithromycin MIC ([4]; compound Conc. Tested 4 (μM)): 0.5 µg/mL
Erythromycin MIC ([4]; compound Conc. Tested 4 (μM)): 4 µg/mL
Vancomycin MIC ([4]; compound Conc. Tested 4 (μM)): 64 µg/mL
Azithromycin MIC ([4]; compound Conc. Tested 5 (μM)): 4 µg/mL
Clarithromycin MIC ([4]; compound Conc. Tested 5 (μM)): 0.5 µg/mL
Erythromycin MIC ([4]; compound Conc. Tested 5 (μM)): 2 µg/mL
Vancomycin MIC ([4]; compound Conc. Tested 5 (μM)): 32 µg/mL
MIC ([5]; Acinetobacter baumannii, read-out: Daptomycm MIC (μg/mL)): 16 µg/mL
Fold Increase (colistin MIC) ([5]; compound at 10 μM vs colistin alone, AB5075): 8 fold
potentiation of vancomycin ([5]; compound at 10 μM, AB5075): no potentiation activity observed
reduction in vancomycin MIC (fold) ([5]; compound at 20 μM, AB5075): 32 fold
Fold Reduction (daptomycin MIC) [5, 6]: 128 fold
Fold Reduction (vancomycin MIC) [5, 6]: 256 fold
Fold Increase (colistin MIC) ([5]; compound at 30 μM vs colistin alone, AB5075): 32 fold
Josamycin MIC [5, 7]: 8 µg/mL
Oleandomycin MIC [5, 7]: 64 µg/mL
Spiramycin MIC [5, 7]: 128 µg/mL
Troleandomycin MIC [5, 7]: 32 µg/mL
Amikacin MIC [5, 8]: 128 µg/mL
Gentamicin MIC [5, 8]: >512 µg/mL
Kanamycin MIC [5, 8]: >512 µg/mL
Neomycin MIC [5, 8]: 16 µg/mL
Streptomycin MIC [5, 8]: 256 µg/mL
Tobramycin MIC [5, 8]: 64 µg/mL
Azithromycin MIC [5, 9]: 32 µg/mL
Vancomycin MIC [5, 9]: 256 µg/mL
Azithromycin MIC [5, 10]: 32 µg/mL
Vancomycin MIC [5, 10]: 256 µg/mL
Azithromycin MIC [5, 11]: 16 µg/mL
Vancomycin MIC [5, 11]: 256 µg/mL
Azithromycin MIC [5, 12]: 16 µg/mL
Vancomycin MIC [5, 12]: 64 µg/mL
Azithromycin MIC [5, 13]: 16 µg/mL
Vancomycin MIC [5, 13]: 8 µg/mL
Azithromycin MIC [5, 14]: 8 µg/mL
Colistin MIC [5, 14]: 16 µg/mL
Linezolid MIC [5, 14]: 128 µg/mL
Vancomycin MIC [5, 14]: 1 µg/mL
Fold reduction of josamycin MIC ([5]; in the presence of compound (concentration not given), AB5075): 16 fold

Source: patent US20210283107A1, “Methods to Expand the Spectrum of Gram-Positive Antibiotics” (NORTH CAROLINA STATE UNIVERSITY, priority 2016, published 2021)
